Data set [1] in a line: grain size distribution by laser diffraction (Sympatec Helos, RODOS dry disperser). The class given is physicochemical. The following applies: vol. % of particles smaller than value. The procedure:
The particle size distribution (grain size distribution) is measured by means of a laser diffraction, which provides a distribution curve of the particle sizes (System Sympatec Helos, RODOS dry disperser). dx means that x volume percent (vol. %) of the particles have a diameter that is smaller than the stated value. Thus, at a d50 value of 1 μm, 50 vol. % of the particles have a diameter smaller than 1 μm (micrometer). When the d10, d99 or d100 is 2 μm, 10, 99 or 100 vol. % of the particles have a diameter smaller than 2 μm.
A 100-ml stirred vessel with blade stirrer is charged with 160 g of Y-stabilized zirconium oxide spheres with a diameter of 0.5 mm plus 30 ml water. A solution of 1.5 g drospirenone in 6.25 ml ethanol/water 4:1 (v/v) is added, with stirring. After precipitation of a mainly amorphous phase, transformation to the crystalline modification begins after approximately 2 min. This is completed after 10 to 15 min. After completion of the phase transformation, a solution of 4.5 g drospirenone in 18.75 ml ethanol/water 4:1 (v/v) and in the same ratio 90 ml water is added dropwise within 15 min, with stirring at 1500 rpm. Simultaneously, with approximately constant filling level, product suspension is drawn off. Addition and product withdrawal can also take place quasicontinuously in smaller portions without any adverse effect on the result, if the above time frame is maintained. After the end of addition, to make the yield complete, approx. 60 ml water is used for rinsing. Alternatively, the suspension in the crystallizer can also be left as starting suspension for the next batch. Altogether, 200 g of suspension is obtained, with a solids content of 25 mg per ml. Approximately 15 ml of this suspension is filtered on a G4 frit and the solid is air-dried. The grain size distribution of the dried substance is determined by laser diffraction (Sympatec Helos, RODOS dispersing system).
Granulometric analysis is carried out by laser diffraction (Sympatec Helos, RODOS dispersing system):
Granulometric analysis was carried out by laser diffraction (Sympatec Helos, RODOS dispersing system, dispersing pressure 5 bar).

A short description of data set [2]: solubility kinetics by the paddle method (dissolved fraction by HPLC). The class given is physicochemical. The following applies: 900 ml water, 37° C., 150 rpm; micronizate pre-dispersed in 2 ml PVP-containing solution. On the procedure:
14 mg of the solid form with Methocel E5 as excipient according to Example 2 with a content of active substance of 21.5 wt. % (equivalent to 3 mg drospirenone) is added to 900 ml water, at 37° C. and stirred at 150 rpm with a blade stirrer. A blind sample (starting value) and samples at 5, 10, 20, 30, and 60 min are taken, filtered in a 0.2 μm syringe filter and the dissolved fraction of drospirenone is determined by HPLC. A conventional micronizate (jet mill) serves as comparison. So that the dissolution behavior of the primary grains of the micronizate is assessed exclusively, wetting and agglomeration effects must be avoided. Therefore, before it was added to the 900 ml of water, the micronizate was dispersed in 2 ml of a PVP-containing solution. The process of release of the particles from the solid form and the subsequent process of dissolution are completed after 5 min, whereas with the conventional micronizate, even with perfect wetting and dispersion of the particles, still almost 30% of the active substance is undissolved after 5 min.

Experimental findings from patent US9173843B2, “Crystalline active ingredient microparticles, method for producing the same and use thereof in drugs” (Jesalis Pharma GMBH, priority 2008, dated 2015) are described below.

`C[C@]12CCC(=O)C=C1[C@@H]1C[C@@H]1[C@H]1[C@@H]3[C@@H]4C[C@@H]4[C@@]4(CCC(=O)O4)[C@@]3(C)CC[C@@H]12` [Example 1, drospirenone]: in data set [1], the “d16 (grain size distribution)” value is on record as 0.52 μm, the “d50 (grain size distribution)” value was found to be 1.48 μm, the “d99 (grain size distribution)” value was 4.63 μm and the “d100 (grain size distribution)” value was 6.00 μm.

As to `C[C@]12CCC(=O)C=C1[C@@H]1C[C@@H]1[C@H]1[C@@H]3[C@@H]4C[C@@H]4[C@@]4(CCC(=O)O4)[C@@]3(C)CC[C@@H]12` [conventional micronizate, drospirenone], the “active substance undissolved after 5 min” value in data set [2] is roughly 30%.
